From article PMC7961587, “Novel Cell Permeable Polymers of N-Substituted L-2,3-Diaminopropionic Acid (DAPEGs) and Cellular Consequences of Their Interactions with Nucleic Acids” (International Journal of Molecular Sciences, 2021)

Key:
[1] = test system: MDA-MB-231 or HB-2 cell lines; experiment: Cytotoxicity assay: MTT; type: cell-based, human; conditions: for Cytotoxicity (percentage of dead cells): MTT assay, MDA-MB-231 or HB-2 cell lines, greatest concentration of 50 µg/mL, 24 h
Experimental: Cell viability against cell-penetrating compounds was detected by the MTT assay. The HB2 and MDA-MB-231 cells were seeded into 96-well plates at a density of 5 × 10^3/well and 7 × 10^3/well, respectively, and incubated in complete medium (100 µL/well) for 48 h. […] Cells incubated in media without any test compounds were used as control. After incubation, medium containing test compounds was removed, and 225 µL fresh medium with 25 µL 3-(4,5-dimethylthiazol-2-yl)-2,5-diphenyltetrazolium bromide (MTT) was added (0.5 mg/mL per well). After incubation at 37 °C for 4 h, supernatants were removed, and the formazan crystals were dissolved overnight with dimethyl sulfoxide (DMSO; 150 µL/well). Results were analyzed using a microplate reader (SPECTROstar Nano, BMG LABTECH, Ortenberg, Germany) at 570 nm and 690 nm.

[2] = target: dsDNA (76 bp fragment) containing the sequence of beta-actin; experiment: Microscale thermophoresis (MST), dsDNA binding; set-up: species or system Homo sapiens; conditions: Monolith NT.115, 0.437 µM 5/6-FAM-labeled compound, dsDNA 6.1 nM–200 µM, EDBS buffer pH 8, 32 °C 1 h, scanned at 25 °C, at least two independent experiments, read-out: Binding constant, double-stranded DNA (MST)
Experimental: (§1) Figure 7 Microscale thermophoresis (MST) analysis of dsDNA binding by 5/6-FAM-labeled compounds. The MST analysis. FAM-labeled compounds 1a (A), 4a (B), 5a (C), and ssDNA binding by 5/6-FAM-labeled compounds 1a (E), 4a (F), 5a (G) was performed using the Monolith NT.115 instrument (NanoTemper). Binding was measured between increasing concentrations (6.1 nM–200 µM) of dsDNA (76 bp fragment) and 0.437 µM of the indicated compounds labeled with 5/6-FAM. Control experiments were performed with DNA and 5/6-FAM dye (D,H).
(§2) Figure 9 Microscale thermophoresis (MST) analysis of dsDNA binding by 5/6-FAM-labeled compounds. The MST analysis of dsDNA binding by 5/6-FAM-labeled compounds 13a (A) and 14a (B), and ssDNA binding by 5/6-FAM-labeled compounds 13a (D) and 14a (E) was performed using the Monolith NT.115 instrument (NanoTemper). Binding was measured between increasing concentration (6.1 nM–200 µM) of dsDNA (76 bp fragment) and 0.437 µM of the indicated compounds labeled with 5/6-FAM. A control experiment was performed with DNA and 5/6-FAM dye (C,F).
(§3) Microscale thermophoresis was performed using the Monolith NT.115 instrument (NanoTemper Technologies GmbH, Munich, Germany). Binding between dsDNA (76 bp) or ssDNA (76 nt) fragments and test compounds labeled with 5/6-FAM was measured. […] All data were analyzed using MO Affinity Analysis software (NanoTemper, Munich, Germany).

HB2 and MDA-MB-231 cells = experiment: Cell permeability and localization by fluorescence microscopy; type: cell-based, human
Text: Preliminary cell permeability experiments facilitated the identification of three groups of compounds. […] The first group includes compound 4 and its derivatives (4a and 4b) and the family of compound 5 (5a and 5b). Compounds 4 and 5 are similar in structure and are composed of six residues of diaminopropionic acid (Dap) decorated with side chains of different lengths, terminating with the same highly positive guanidine moiety. […] Both compounds display unique cellular localization. […] We believe that such effective nuclear localisation of the first group of tested compounds is due to the effective mimicking of the nuclear localisation sequence (NLS). Such sequence consists of several positively charged lysines or arginines present in the protein structure. Additionally, side chain length of the polymer molecules seems to be a crucial factor that is optimal for compounds belonging to first group of polymers.
HB2 and MDA-MB-231 cells were seeded on 24-well plates at a density 1.5 × 10^4/well and 4 × 10^4/well, respectively, and incubated in 0.5 mL complete medium for 48 h. Subsequently, cells were washed with phosphate-buffered saline (PBS), and fresh medium with a fluorescently labeled peptide was added to each well at a concentration of 10 µM. For nucleus staining a DAPI solution (ThermoFisher Scientific, Waltham, MA, USA, […] R37606) in PBS was employed in conditions recommended by the supplier. After the incubation (2 h or 24 h), cells were washed thoroughly with PBS, and then a phenol red-free culture medium (FluoroBrite, DMEM) was added. Subsequently, the cells were examined using an Olympus IX51 fluorescence microscope (Olympus, Tokyo, Japan) using appropriate filters: blue for DAPI, green for FITC, and red TAMRA. Next, the images were merged and colocalization of the dyes’ emission were analyzed.

ssDNA (76 nt) fragment = experiment: Microscale thermophoresis (MST), ssDNA binding; set-up: species or system Homo sapiens; conditions: Monolith NT.115, 0.437 µM 5/6-FAM-labeled compound, EDBS buffer pH 8, 32 °C 1 h, scanned at 25 °C, at least two independent experiments, read-out: Binding constant, single-stranded DNA (MST)
Experimental: as §1, §2, §3

[3] = test system: 76 bp dsDNA fragment containing the sequence of β-actin; experiment: Surface plasmon resonance (SPR), dsDNA binding; set-up: species or system Homo sapiens; conditions: 50 and 100 µM compound over immobilized 76 bp dsDNA, HBS-EP buffer
Experimental: Standard surface plasmon resonance (SPR) analyses using a Biacore T200 (GE Healthcare, Warsaw, Poland) were performed essentially as described in the manufacturers’ manual. DNA binding by all tested compounds was studied using a 5′-biotinylated 76 nt ssDNA or 76 bp dsDNA fragment containing the sequence of β-actin (Homo sapiens), immobilized on a streptavidin matrix-coated sensor chip SA (GE Healthcare, Warsaw, Poland). All oligonucleotides were commercially synthesized (oligo.pl, Poland; Figures S3 and S4). The dsDNA was immobilized on the sensor surface to yield a final value of ~50 RU for dsDNA or ~100 RU. Experiments were performed at 25 °C, and the running buffer was HBS-EP (150 mM NaCl, 10 mM HEPES (pH = 7.4), 3 mM EDTA, and 0.05% Surfactant P20). In binding experiments, the buffer flow rate was set to 15 µL/min, and in kinetic experiments, the buffer flow rate was 30 µL/min. The data were analyzed using Biacore T200 evaluation software (GE Healthcare, Warsaw, Poland). The results are presented as sensorgrams obtained after subtracting the background response signal from a reference flow cell and from a control experiment with buffer injection.
Figure 2S. Cytotoxicity of compounds 1a–9a as assessed by the MTT assay. Two different cell lines were used: A) HB‐2 and B) MDA‐MB‐231.
Figure 3S. Surface plasmon resonance SPR analysis of double‐stranded DNA (dsDNA) binding by various peptidomimetics. The SPR analysis of dsDNA binding was performed using: A) 50 μM and B) 100 μM of the indicated compounds, flowed over the SA sensor chip surface with immobilized 76 bp biotinylated DNA fragment containing the sequence of beta‐ actin (Homo sapiens). Injections were performed in HBS‐EP buffer. HBS‐EP was also used as […]
Figure 4S. SPR analysis of DNA binding by compound 5a. […] (C) Kinetic constants calculated from at least three experiments using Biacore T200 Evaluation Software […]

For 5′,6-FAM-O2Oc-(Arg)6-O2Oc-NH2 [1a], the “Cytotoxicity at the concentration used in the cell experiments, in words” value ([1]; 10 µM, MTT, Figure S2, HB-2 and MDA-MB-231) was “slightly cytotoxic”, the Kd [2] was 7.4 ± 0.1 µM and the “Cell membrane crossing and localization, in words” value (HB2 and MDA-MB-231 cells; 10 µM, fluorescence microscopy, HB2 or MDA-MB-231 cells) was “partially visible in the cytoplasm in the form of granules”. The “Cell Permeablility (Target): cellular localization” value (HB2 and MDA-MB-231 cells; fluorescence microscope Olympus IX51, 10 µM fluorescently labeled compound, DAPI nucleus staining) was “cytoplasm” and the Kd (ssDNA (76 nt) fragment) was 0.02 ± 0.04 µM.

With “5′,6-FAM [compound 10, reference compound]” the Kd [2] was 639 ± 703 µM and the Kd (ssDNA (76 nt) fragment) was 399 ± 497 µM.

With `N=C(N)NCCC[C@@H](NC(=O)COCCOCCN)C(=O)N[C@H](CCCNC(=N)N)C(=O)N[C@H](CCCNC(=N)N)C(=O)N[C@H](CCCNC(=N)N)C(=O)N[C@H](CCCNC(=N)N)C(=O)N[C@H](CCCNC(=N)N)C(=O)NCCOCCOCC(N)=O` [compound 2, O2Oc(D-arg)6-O2Oc-NH2] the “Cytotoxicity (percentage of dead cells)” value [1] was 15% and the “DNA binding class set arbitrarily from the SPR experiment (Figure S3)” value (shortened to “DNA binding class set arbitrarily”) [3] was “Moderate”.

In the case of `N=C(N)NCCCC[C@H](NC(=O)COCCOCCN)C(=O)N[C@@H](CCCCNC(=N)N)C(=O)N[C@@H](CCCCNC(=N)N)C(=O)N[C@@H](CCCCNC(=N)N)C(=O)N[C@@H](CCCCNC(=N)N)C(=O)N[C@@H](CCCCNC(=N)N)C(=O)NCCOCCOCC(N)=O` [compound 3, O2Oc-(Har)6-O2Oc-NH2], the “Cytotoxicity (percentage of dead cells)” value [1] is reported as 10% and the “DNA binding class set arbitrarily” value [3] is reported as “Weak”.

In the case of `N=C(N)NCCC[C@H](NC(=O)COCCOCCN)C(=O)N[C@@H](CCCNC(=N)N)C(=O)N[C@@H](CCCNC(=N)N)C(=O)N[C@@H](CCCNC(=N)N)C(=O)N[C@@H](CCCNC(=N)N)C(=O)N[C@@H](CCCNC(=N)N)C(=O)NCCOCCOCC(N)=O` [compound 1, O2Oc(Arg)6-O2Oc-NH2], the “Cytotoxicity (percentage of dead cells)” value [1] is reported as 10% and the “DNA binding class set arbitrarily” value [3] is reported as “Moderate”.
